Laboratory results: PubChem BioAssay (NCI)
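Interpolation was linear, between the two tested concentrations surrounding the appropriate level; five concentrations were tested over 48 hours in 96-well plates. GI50 = concentration required for 50% inhibition of growth. TGI marks complete inhibition of growth.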

Assays:
Assay in all cases: NCI tumour cell line growth inhibition, 48 h
[1] = system: 786-0 renal
[2] = system: A498 renal
[3] = system: A549 NSCLC
[4] = system: ACHN renal
[5] = system: BT-549 breast
[6] = system: CAKI-1 renal
[7] = system: CCRF-CEM leukemia
[8] = system: COLO 205 colon
[9] = system: DU-145 prostate
[10] = system: EKVX NSCLC
[11] = system: HCC-2998 colon
[12] = system: HCT-116 colon
[13] = system: HCT-15 colon
[14] = system: HL-60(TB) leukemia
[15] = system: HOP-62 NSCLC
[16] = system: HOP-92 NSCLC
[17] = system: HS 578T breast
[18] = system: HT29 colon
[19] = system: K-562 leukemia
[20] = system: KM12 colon
[21] = system: LOX IMVI melanoma
[22] = system: M14 melanoma
[23] = system: MALME-3M melanoma
[24] = system: MCF7 breast
[25] = system: MDA-MB-231 breast
[26] = system: MDA-MB-435
[27] = system: MOLT-4 leukemia
[28] = system: NCI-H226 lung
[29] = system: NCI-H23 lung
[30] = system: NCI-H460 lung
[31] = system: NCI/ADR-RES ovarian
[32] = system: OVCAR-3 ovarian
[33] = system: OVCAR-4 ovarian
[34] = system: OVCAR-5 ovarian
[35] = system: OVCAR-8 ovarian
[36] = system: PC-3 prostate
[37] = system: RPMI-8226 leukemia
[38] = system: RXF 393 renal
[39] = system: SF-268 CNS
[40] = system: SF-295 CNS
[41] = system: SF-539 CNS
[42] = system: SK-MEL-28 melanoma
[43] = system: SK-MEL-5 melanoma
[44] = system: SK-OV-3 ovarian
[45] = system: SN12C renal
[46] = system: SNB-19 CNS
[47] = system: SNB-75 CNS
[48] = system: SR leukemia
[49] = system: SW-620 colon
[50] = system: T-47D breast
[51] = system: TK-10 renal
[52] = system: U251 CNS
[53] = system: UACC-257 melanoma
[54] = system: UACC-62 melanoma

With `CCOC(=O)C1=C(C)N(c2ccc(OC)cc2)C2(O)C=CC(=O)C3C(=O)N(c4ccccc4)C(=O)C132` (stereo not drawn) the GI50 [1] was 2.28 µM, the TGI [1] was 5.34 µM and the GI50 [2] was 11.4 µM. It also gave a TGI [2] of 23.5 µM, a GI50 [3] of 3.29 µM and a TGI [3] of 13 µM. For the same compound, the GI50 [4] was 1.94 µM, the TGI [4] was 3.93 µM and the GI50 [5] was 1.93 µM. The TGI [5] was 4.15 µM, the GI50 [6] was 3.52 µM and the TGI [6] was 10.1 µM. It also gave a GI50 [7] of 1.67 µM, a TGI [7] of 13 µM and a GI50 [8] of 1.9 µM. The TGI [8] was 3.83 µM, the GI50 [9] was 1.82 µM and the TGI [9] was 4.7 µM. The GI50 [10] was 2.71 µM, the TGI [10] was 12.1 µM and the GI50 [11] was 1.71 µM. For the same compound, the TGI [11] was 3.19 µM, the GI50 [12] was 1.17 µM and the TGI [12] was 2.48 µM. It also gave a GI50 [13] of 1.95 µM, a TGI [13] of 6.5 µM and a GI50 [14] of 2.34 µM. For the same compound, the TGI [14] was 5.82 µM, the GI50 [15] was 3.72 µM and the TGI [15] was 10.3 µM. The GI50 [16] was 2.78 µM, the TGI [16] was 7.97 µM and the GI50 [17] was 3.89 µM. The TGI [17] was 29.9 µM, the GI50 [18] was 2.04 µM and the TGI [18] was 3.75 µM. The GI50 [19] was 2.68 µM, the TGI [19] was > 100 µM and the GI50 [20] was 1.84 µM. For the same compound, the TGI [20] was 3.41 µM, the GI50 [21] was 1.55 µM and the TGI [21] was 2.96 µM. For the same compound, the GI50 [22] was 2.2 µM, the TGI [22] was 5.39 µM and the GI50 [23] was 2.04 µM. It also gave a TGI [23] of 3.83 µM, a GI50 [24] of 2.6 µM and a TGI [24] of 11.1 µM. For the same compound, the GI50 [25] was 3.19 µM, the TGI [25] was 7.77 µM and the GI50 [26] was 2.72 µM. For the same compound, the TGI [26] was 7.47 µM, the GI50 [27] was 2.42 µM and the TGI [27] was 5.66 µM. The GI50 [28] was 2.56 µM, the TGI [28] was 5.18 µM and the GI50 [29] was 2.34 µM. The TGI [29] was 6.66 µM, the GI50 [30] was 2.08 µM and the TGI [30] was 5.25 µM. It also gave a GI50 [31] of 3.57 µM, a TGI [31] of 22.3 µM and a GI50 [32] of 1.89 µM. It also gave a TGI [32] of 3.66 µM, a GI50 [33] of 2.21 µM and a TGI [33] of 5.89 µM. The GI50 [34] was 4.08 µM, the TGI [34] was 22.8 µM and the GI50 [35] was 3.58 µM. It also gave a TGI [35] of 17.3 µM, a GI50 [36] of 2.89 µM and a TGI [36] of 10.1 µM. It also gave a GI50 [37] of 1.95 µM, a TGI [37] of 5.15 µM and a GI50 [38] of 1.81 µM. For the same compound, the TGI [38] was 3.42 µM, the GI50 [39] was 3.51 µM and the TGI [39] was 18.4 µM. The GI50 [40] was 15.1 µM, the TGI [40] was 28.6 µM and the GI50 [41] was 2.27 µM. The TGI [41] was 5.6 µM, the GI50 [42] was 1.86 µM and the TGI [42] was 4.29 µM. It also gave a GI50 [43] of 1.51 µM, a TGI [43] of 3.05 µM and a GI50 [44] of 9.92 µM. The TGI [44] was 21.7 µM, the GI50 [45] was 4.09 µM and the TGI [45] was 12.5 µM. It also gave a GI50 [46] of 4.74 µM, a TGI [46] of 16.8 µM and a GI50 [47] of 4.16 µM. The TGI [47] was 13.8 µM, the GI50 [48] was 1.59 µM and the TGI [48] was 5.26 µM. For the same compound, the GI50 [49] was 1.88 µM, the TGI [49] was 3.83 µM and the GI50 [50] was 1.79 µM. The TGI [50] was 6.08 µM, the GI50 [51] was 3.48 µM and the TGI [51] was 9.05 µM. It also gave a GI50 [52] of 2.14 µM, a TGI [52] of 5.21 µM and a GI50 [53] of 2.78 µM. It also gave a TGI [53] of 11 µM, a GI50 [54] of 2.41 µM and a TGI [54] of 5.47 µM.
